Results: PMC5995653 (Journal of pharmacological and toxicological methods, 2018)
Read-outs that look alike come from different tables or passages of the source.

Experiments:
rSERT = rSERT (Rattus norvegicus, UniProt P31652); conditions: read-out: Ki, rSERT, synaptosomes; cited from earlier work
hSERT [1] = biological target: T1, hSERT (Homo sapiens, UniProt P31645); conditions: read-out: Reuptake inhibition activity IC50, hSERT, JAR cells
hSERT [2] = biological target: T1, hSERT; conditions: read-out: Reuptake inhibition activity IC50, hSERT-HEK293 cells; cited from earlier work
hSERT [3] = biological target: T1, hSERT; assay: SERT reuptake inhibition in transfected hSERT-HEK293 cells; assay type: cell-based; conditions: unpublished results of the authors' group

T1 sequence (P31645 whole entry): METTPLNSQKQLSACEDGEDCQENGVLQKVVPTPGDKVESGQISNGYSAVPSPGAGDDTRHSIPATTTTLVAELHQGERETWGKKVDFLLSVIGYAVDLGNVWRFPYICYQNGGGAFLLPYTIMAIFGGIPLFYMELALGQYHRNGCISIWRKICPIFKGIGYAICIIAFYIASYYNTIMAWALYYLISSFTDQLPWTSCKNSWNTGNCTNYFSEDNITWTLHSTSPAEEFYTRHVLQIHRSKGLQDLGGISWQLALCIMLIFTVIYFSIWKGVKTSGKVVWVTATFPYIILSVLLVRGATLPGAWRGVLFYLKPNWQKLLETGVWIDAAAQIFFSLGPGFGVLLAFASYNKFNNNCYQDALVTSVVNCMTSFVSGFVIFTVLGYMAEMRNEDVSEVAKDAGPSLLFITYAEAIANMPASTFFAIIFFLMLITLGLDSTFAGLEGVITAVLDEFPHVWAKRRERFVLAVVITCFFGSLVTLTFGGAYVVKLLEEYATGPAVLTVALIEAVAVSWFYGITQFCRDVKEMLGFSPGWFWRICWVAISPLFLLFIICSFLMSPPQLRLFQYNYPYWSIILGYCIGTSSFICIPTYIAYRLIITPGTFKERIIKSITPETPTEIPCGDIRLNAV
Sequence of rSERT (P31652 whole entry): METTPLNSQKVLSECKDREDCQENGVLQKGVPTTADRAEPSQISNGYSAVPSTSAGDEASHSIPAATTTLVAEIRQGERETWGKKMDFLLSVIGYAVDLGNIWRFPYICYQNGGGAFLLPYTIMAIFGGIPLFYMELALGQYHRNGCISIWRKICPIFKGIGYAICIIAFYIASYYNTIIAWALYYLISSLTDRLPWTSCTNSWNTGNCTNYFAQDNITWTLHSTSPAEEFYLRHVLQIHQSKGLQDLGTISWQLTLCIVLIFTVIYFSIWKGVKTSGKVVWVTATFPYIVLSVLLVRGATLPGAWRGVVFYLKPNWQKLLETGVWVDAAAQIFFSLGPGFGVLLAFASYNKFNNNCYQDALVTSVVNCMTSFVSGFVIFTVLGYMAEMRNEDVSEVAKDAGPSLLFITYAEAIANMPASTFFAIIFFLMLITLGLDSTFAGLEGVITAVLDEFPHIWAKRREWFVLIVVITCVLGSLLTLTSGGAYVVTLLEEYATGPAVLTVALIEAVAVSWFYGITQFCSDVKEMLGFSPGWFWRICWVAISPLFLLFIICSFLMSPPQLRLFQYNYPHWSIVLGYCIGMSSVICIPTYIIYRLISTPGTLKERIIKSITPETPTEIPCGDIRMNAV

SMILES | Ki (rSERT) [nM] | IC50 (hSERT [1]) [nM] | IC50 (hSERT [2]) [nM] | Activity in hSERT-HEK293 cells (in words) (hSERT [3])
COC(=O)[C@H]1C(c2ccc(I)cc2)C[C@@H]2CC[C@H]1N2C (stereo partly drawn) [RTI-55] | 1 | 1.31 ± 0.1 | 0.51 ± 0.14 | –
Fc1ccc(C(OCCN2CCN(CCCc3ccccc3)CC2)c2ccc(F)cc2)cc1 [GBR12909] | – | – | – | inactive
CN1[C@H]2CC[C@@H]1[C@@H](C(=O)N1CCCC1)[C@@H](c1ccc(I)cc1)C2 [RTI-229] | 362 | 589 ± 42 | – | –
